US20240366612A1, “COMPOUNDS AND METHODS FOR MODULATING NUCLEIC ACID SPLICING” (REMIX THERAPEUTICS INC., priority 2021, published 2024)

Assays:
[1] = system: HTT mRNA; test: Splicing RT-qPCR assay, HTT canonical (CJ) and alternative (AJ) junction mRNA; assay type: cell-based; details: Homo sapiens, A673 or K562 cells, 24 hours treatment; for IC50: decrease in CJ mRNA; for AC50: increase in AJ mRNA
Procedure, shortened: (§1)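 Compound-treated A673 or K562 cells (11-point 3-fold dilution, top dose 10 uM final, DMSO ≤0.25%) were incubated for 24 h at 37° C. Lysates underwent one-step RT-qPCR for canonical and alternative-exon junction isoforms. Normalization used PPIA for A673 and GAPDH or GUSB for K562.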

[2] = system: MYB mRNA; test: Splicing RT-qPCR assay, MYB canonical (CJ) and alternative (AJ) junction mRNA; assay type: cell-based; details: Homo sapiens, A673 or K562 cells, 24 hours treatment; for IC50: decrease in CJ mRNA; for AC50: increase in AJ mRNA
Procedure, shortened: as §1

[3] = system: HTT CJ mRNA; test: Gene panel canonical junction qPCR assay, HTT; assay type: cell-based; details: Homo sapiens, larger gene panel, read-out: HTT IC50 (decrease in CJ mRNA levels)
Procedure, shortened: (§2)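 A673 or K562 cells treated 24 h with 11-point 3-fold dilutions (top 10 µM, ≤0.25% DMSO) at 37 °C. Canonical exon-junction mRNA measured by probe-based RT-qPCR, normalized to GAPDH, GUSB or PPIA and DMSO (2^−ΔΔCt), converted to percent response over a fixed ΔCt window; IC50 from 4-parameter fit.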

[4] = system: MYB CJ mRNA; test: Gene panel canonical junction qPCR assay, MYB; assay type: cell-based; details: Homo sapiens, larger gene panel, read-out: MYB IC50 (decrease in CJ mRNA levels)
Procedure, shortened: as §2

[5] = system: SMN2 CJ mRNA; test: Gene panel canonical junction qPCR assay, SMN2; assay type: cell-based; details: Homo sapiens, larger gene panel, read-out: SMN2 IC50 (decrease in CJ mRNA levels)
Procedure, shortened: as §2

[6] = Cell Titer Glo 2.0 cell viability assay; details: human, K562 cells
Experimental: Compounds described herein were screened for toxicity in K562 (human chronic myelogenous leukemia) cells using a Cell Titer Glo 2.0 assay.
• Promega CellTiter-Gbo® 2.0 Cell Viability Assay (cat #G9241) • Corning 384-well TC-treated microplates (cat #3570)
Cells were plated at 500 cells/well (K562 cells) in 45 μL of IMDM supplemented with 10% FBS in a 384-well opaque plate. Wells containing only medium were used as a blank control. Test compounds (e.g., compounds of Formula (I), (II), and (III)) were first serially diluted in DMSO then diluted 1:100 with IMDM+10% FBS. The final concentration of DMSO was 0.1% in each well. The cells were incubated for 72 hours at 37° C. and 5% CO2 before assaying with Cell Titer Glo 2.0 reagent.

Row | Compound | IC50 [1] | IC50 [2] | IC50 [3] | IC50 [4] | IC50 [5] | AC50 [1] | AC50 [2] | GI50 at 72 h [6]
1 | Cc1cn2cc(-c3cc4ncn(C5CNCCC5=O)c(=O)c4s3)cc(F)c2n1 (stereo not drawn) [Compound 279, 3-(6-{8-fluoro-2-methylimidazo[1,2-a]pyridin-6-yl}-4-oxothieno [3,2-d]pyrimidin-3-yl)piperidin-4-one] | > 10000 nM | > 10000 nM | > 10000 nM | > 10000 nM | > 10000 nM | > 10000 nM | > 10000 nM | > 10000 nM
2 | Cc1cn2cc(-c3cc4ncn([C@H]5CCNC[C@H]5F)c(=O)c4s3)cc(F)c2n1 (relative stereo) [Compound 273, cis-6-{8-fluoro-2-methylimidazo[1,2-a]pyridin-6-yl}-3-[3-fluoropiperidin-4-yl]thieno[3,2-d]pyrimidin-4-one] | 100 to 1000 nM | 100 to 1000 nM | 100 to 1000 nM | 100 to 1000 nM | 100 to 1000 nM | 1000 to 10000 nM | 100 to 1000 nM | 1000 to 10000 nM
3 | Cc1cn2cc(N3CCc4cc(C5CCNCC5)sc4C3=O)cc(F)c2n1 [Compound 800, 6-[8-fluoro-2-methylimidazo[1,2-a]pyridin-6-yl]-2-(piperidin-4-yl)-4H,5H-thieno[2,3-c]pyridin-7-one] | > 10000 nM | > 10000 nM | > 10000 nM | > 10000 nM | > 10000 nM | > 10000 nM | > 10000 nM | > 10000 nM
4 | COc1cc(-c2cc3ncn(C4CCNCC4)c(=O)c3s2)ccn1 [Compound 263] | 1000 to 10000 nM | 1000 to 10000 nM | 1000 to 10000 nM | 1000 to 10000 nM | 1000 to 10000 nM | 1000 to 10000 nM | 1000 to 10000 nM | 1000 to 10000 nM
5 | Cc1cn2cc(-c3nc4ncn(C5CCNCC5)c(=O)c4s3)cc(F)c2n1 [Compound 232, 2-(8-fluoro-2-methylimidazo[1,2-a]pyridin-6-yl)-6-(piperidin-4-yl)thiazolo[4,5-d]pyrimidin-7(6H)-one] | < 100 nM | 100 to 1000 nM | < 100 nM | 100 to 1000 nM | < 100 nM | < 100 nM | 100 to 1000 nM | 100 to 1000 nM
6 | Cc1cn2cc(-n3cnc4nc(N5CCNCC5)sc4c3=O)cc(C(F)(F)F)c2n1 [Compound 229, 6-(2-methyl-8-(trifluoromethyl)imidazo[1,2-a]pyridin-6-yl)-2-(piperazin-1-yl)thiazolo[4,5-d]pyrimidin-7(6H)-one] | > 10000 nM | > 10000 nM | > 10000 nM | > 10000 nM | > 10000 nM | > 10000 nM | > 10000 nM | > 10000 nM
7 | Cc1nc(-c2nc3cnn(C4CCNCC4)c(=O)c3s2)cc2cn(C)nc12 [Compound 811] | 1000 to 10000 nM | 1000 to 10000 nM | 1000 to 10000 nM | 1000 to 10000 nM | 100 to 1000 nM | 1000 to 10000 nM | 1000 to 10000 nM | 1000 to 10000 nM
8 | Cc1cn2cc(-c3cc4ncn(C5=CCNCC5)c(=O)c4s3)cc(F)c2n1 [Compound 276, 6-{8-fluoro-2-methylimidazo[1,2-a]pyridin-6-yl}-3-(1,2,3,6-tetrahydropyridin-4-yl)thieno[3,2-d]pyrimidin-4-one] | 100 to 1000 nM | 100 to 1000 nM | 100 to 1000 nM | 100 to 1000 nM | < 100 nM | 100 to 1000 nM | 100 to 1000 nM | 100 to 1000 nM
9 | Cc1cn2cc(-c3cc4ncn(C5CCNCC5(F)F)c(=O)c4s3)cc(F)c2n1 (stereo not drawn) [Compound 274, 3-(3,3-difluoropiperidin-4-yl)-6-{8-fluoro-2-methylimidazo[1,2-a]pyridin-6-yl}thieno[3,2-d]pyrimidin-4-one] | > 10000 nM | > 10000 nM | > 10000 nM | > 10000 nM | 1000 to 10000 nM | 1000 to 10000 nM | > 10000 nM | > 10000 nM
10 | Cc1cn2nc(-c3nc4cnn(C5CCNCC5)c(=O)c4s3)cc(C)c2n1 [Compound 810] | 100 to 1000 nM | 100 to 1000 nM | 100 to 1000 nM | 100 to 1000 nM | 100 to 1000 nM | 100 to 1000 nM | 100 to 1000 nM | 100 to 1000 nM

Second part, led by results:

Row | IC50 [1] | IC50 [2] | IC50 [3] | IC50 [4] | IC50 [5] | Compound | AC50 [1] | AC50 [2] | GI50 at 72 h [6]
11 | < 100 nM | 100 to 1000 nM | < 100 nM | 100 to 1000 nM | < 100 nM | Cc1cc(-c2cc3ncn(C4CCNCC4)c(=O)c3s2)cc2cn(C)nc12 [Compound 236, 6-(2,7-dimethyl-2H-indazol-5-yl)-3-(piperidin-4-yl)thieno[3,2-d]pyrimidin-4(3H)-one] | 100 to 1000 nM | 100 to 1000 nM | 100 to 1000 nM
12 | > 10000 nM | > 10000 nM | > 10000 nM | > 10000 nM | 100 to 1000 nM | Cc1cn2nc(-c3nc4sc(N5CCN(C)CC5)nc4c(=O)[nH]3)cc2c(C)n1 [Compound 268] | > 10000 nM | 1000 to 10000 nM | > 10000 nM
13 | 1000 to 10000 nM | 1000 to 10000 nM | 1000 to 10000 nM | 1000 to 10000 nM | 1000 to 10000 nM | Cc1cn2cc(-c3nn4c(=O)cc(N5CCNC6(CC6)C5)nc4s3)cc(F)c2n1 [Compound 216, 2-(8-fluoro-2-methylimidazo[1,2-a]pyridin-6-yl)-7-(4,7-diazaspiro[2.5]octan-7-yl)-5H-[1,3,4]thiadiazolo[3,2-a]pyrimidin-5-one] | 1000 to 10000 nM | 1000 to 10000 nM | 1000 to 10000 nM
14 | 100 to 1000 nM | 100 to 1000 nM | 100 to 1000 nM | 100 to 1000 nM | < 100 nM | Cc1cc(-c2nc3ncn(C4CCN(C)CC4)c(=O)c3s2)cc2cn(C)nc12 [Compound 234, 2-(2,7-dimethyl-2H-indazol-5-yl)-6-(1-methylpiperidin-4-yl)thiazolo[4,5-d]pyrimidin-7(6H)-one] | 100 to 1000 nM | < 100 nM | 100 to 1000 nM
15 | 1000 to 10000 nM | 1000 to 10000 nM | 1000 to 10000 nM | 1000 to 10000 nM | 100 to 1000 nM | Cc1cn2cc(-c3nn4c(=O)cc(N5CCNCC5)nc4s3)cc(F)c2n1 [Compound 214, 2-(8-fluoro-2-methylimidazo[1,2-a]pyridin-6-yl)-7-(piperazin-1-yl)-5H-[1,3,4]thiadiazolo[3,2-a]pyrimidin-5-one] | > 10000 nM | 1000 to 10000 nM | 1000 to 10000 nM
16 | 1000 to 10000 nM | 1000 to 10000 nM | 1000 to 10000 nM | 1000 to 10000 nM | 1000 to 10000 nM | Cn1cc2cc(-c3cc4ncn(C5CCNCC5)c(=O)c4s3)cc(F)c2n1 [Compound 257] | 1000 to 10000 nM | 1000 to 10000 nM | 1000 to 10000 nM
17 | > 10000 nM | > 10000 nM | > 10000 nM | > 10000 nM | > 10000 nM | Cc1cc(-c2cc(=O)n3cc(N4CCN(C)CC4)sc3n2)cc2cn(C)nc12 [Compound 109, 7-(2,7-dimethyl-2H-indazol-5-yl)-2-(4-methylpiperazin-1-yl)-5H-thiazolo[3,2-a]pyrimidin-5-one] | > 10000 nM | 1000 to 10000 nM | 1000 to 10000 nM
18 | 100 to 1000 nM | 100 to 1000 nM | 100 to 1000 nM | 100 to 1000 nM | < 100 nM | Cc1cn2cc(-c3cc4ncn(C5CCN(C)CC5)c(=O)c4s3)cc(F)c2n1 [Compound 265, 6-{8-fluoro-2-methylimidazo[1,2-a]pyridin-6-yl}-3-(1-methylpiperidin-4-yl)thieno[3,2-d]pyrimidin-4-one] | 100 to 1000 nM | 100 to 1000 nM | 100 to 1000 nM
